# Entries after “also recorded” stand apart in the source; their conditions may differ.
# Experiments:
# [1] = test system: polarised Caco-2 monolayers; assay: Permeation of horseradish peroxidase (HRP) through the monolayer after H/R; format: cell-based, human
# Procedure: (§1) Hypoxia (Ischemia)/Normoxia (Reperfusion) (H/R) protocols for in vitro studies: For all experiments AGS, Caco-2 and RIE1 cells were set up in plates as described in specific methods. Cells were used at 70-80% confluence for cell injury/death assessment and as confluent monolayers for permeability studies. To induce “ischemia”, cells were placed in a hypoxic incubator (2% 02) for specified time and to mimic reperfusion, cells were placed back in a normoxic (21% 02) incubator for specified time. All treatments were duplicated in a second set of identical plates under normoxic conditions throughout the same test period as controls. To determine optimum conditions for the in vitro studies, pilot studies were performed.
# The effect of […] PSTI pre-treatment on transepithelial permeability induced by 1 hour of hypoxia followed by 24 hours of normoxia was examined using Caco-2, human polarizing colonic adenocarcinoma cells utilizing two different previously published methods according to Davison et al., 2016, Am J Nutr 2016; 104:526-536. One method determined change in transepithelial electrical resistance (TEER) and the other method analyzed the passage of horseradish peroxidase (HRP) across the epithelial layer. HRP (type II) is a non-digestible macromolecular protein (MW=44 kD) and has previously been used as a tracer in evaluation of epithelial permeability. Each monolayer had TEER and HRP permeability assessed at baseline, at the end of 1 h incubation in an hypoxic (ischemic) chamber and at the end of a 24 h reoxygenation (reperfusion) period. Measurements were taken in triplicate from 4 wells per treatment. Results are expressed as mean+/−SEM.
# lung tissue = assay: Gut I/R model, lung tissue
# AGS cells [2] = assay: Lactate dehydrogenase (LDH) cell damage assay after H/R; format: cell-based, human
# Procedure: as §1
# Lactate dehydrogenase (LDH) assay: Cell damage was assessed using the activity of LDH released into the cell culture medium. LDH is a cytosolic enzyme present in many different cell types. Plasma membrane damage releases LDH into the cell culture media. At the end of the H/R period, supernatant was collected from all wells and LDH activity determined using a Pierce LDH Cytotoxicity Assay Kit (Thermo Fisher Scientific, Hemel Hempstead, UK) following manufacturer's instructions. Results are expressed as LDH activity and presented as mean+/−SEM of six wells.
# Example 1A: Dose response study: To examine the effect of PSTI on H/R-induced cell injury in vitro, cells were set up in 96 well plates and pre-incubated in SFM containing glucose, with or without 5, 10 or 15 μg/ml PSTI for 1 hour (i.e. PSTI pre-treatment). These concentrations of PSTI were chosen based on previous studies examining cell migration (Marchbank et al., 2007, Am J Pathol 171(5):1462-73). The medium was replaced with SFM without glucose and placed in the hypoxia incubator for 4 hours. […]
# Example 1B: Efficacy of PSTI given pre-, during- or post-hypoxic period. […] Cell Viability (MTT assay) and cell damage (LDH assay) were assessed. […] Cell Viability (MTT assay) and cell damage (LDH assay) were assessed.
# 50% SI (clamped region) = assay: Gut ischemia-reperfusion (I/R) model, clamped 50% SI site
# NSAID-induced apoptosis = details: cited from earlier work
# AGS cells [3] = assay: Cell viability (MTT) assay after hypoxia/reperfusion (H/R); format: cell-based, human; details: for cell viability in the MTT assay: 4 h hypoxia + 24 h reperfusion
# Procedure: as §1
# Cell viability (MTT) assay: Cell viability following H/R was assessed using an MTT assay (3-(4,5-dimethylthiazol-2-yl)-2,5-diphenyltetrazolium bromide) according to Marshall et al., Growth Regul. 1995; 5(2):69-84. The principal of the assay is that viable cells contain NAD(P)H-dependent oxidoreductase enzymes which reduce the MTT reagent to formazan which can be measured spectrophotometrically. At the end of the H/R period, 5 mg/ml MTT in PBS was added to each well of the 96 well plates and incubated at 37° C. for 4 hours, the medium was replaced with 150 μl of DMSO and the absorbance measured at 490 nm. Cell viability was expressed as percentage of the equivalent normoxic control, all results are expressed as mean+/−SEM of six wells.
# Example 1A: Dose response study: To examine the effect of PSTI on H/R-induced cell injury in vitro, cells were set up in 96 well plates and pre-incubated in SFM containing glucose, with or without 5, 10 or 15 μg/ml PSTI for 1 hour (i.e. PSTI pre-treatment). These concentrations of PSTI were chosen based on previous studies examining cell migration (Marchbank et al., 2007, Am J Pathol 171(5):1462-73). The medium was replaced with SFM without glucose and placed in the hypoxia incubator for 4 hours. At the end of the hypoxia period, medium was replaced with SFM containing glucose for 24 hours at normoxia for the reperfusion period.
# Example 1B: Efficacy of PSTI given pre-, during- or post-hypoxic period. The potential benefits of giving PSTI prior to, during or following the hypoxic period were compared. Cells were either pre-treated with 10 μg/ml PSTI for the 1 hour before hypoxia (Pre), treated with 10 μg/ml PSTI during hypoxia (During) or treated with 10 μg/ml PSTI during the reperfusion stage (Post). Cell Viability (MTT assay) and cell damage (LDH assay) were assessed. Cells were pre-treated with 10 μg/ml PSTI for the 1 hour before hypoxia (Pre), at the time of the start of hypoxic period (During), or added at the start of the reperfusion stage (Post). Cell Viability (MTT assay) and cell damage (LDH assay) were assessed.
# bladder cancer = details: cited from earlier work
# [4] = IR + PSTI 20 μg/kg ip, mean ± SEM
# [5] = PSTI 20 μg/kg ip, vs I/R without PSTI
# [6] = normoxia, PSTI 10 microgram per ml
# [7] = 50% SI clamped, PSTI 20 μg/kg ip, vs I/R without PSTI
substance,measurement,setting,value
pancreatic secretory trypsin inhibitor (DSLGREAKCYNELNGCTKIYDPVCGTDGNTYPNECVLCFENRKRQTSILIQKSGPC; listed as Homo sapiens) [PSTI],truncation of the increase in HRP permeability,"[1]; Caco-2, end of the 1 h hypoxic period",about 54%
same,truncation of the increase in HRP permeability,"[1]; Caco-2, final H/R time point (1 h hypoxia + 24 h)",37%
same,truncation of the 300% increase in transepithelial permeability (horse radish peroxidase translocation),"[1]; Caco-2 monolayers, hypoxia/reperfusion 1 h+24 h, p<0.01",50%
same,"I/R-induced change in HRP permeability, medium alone vs PSTI",[1]; PSTI added to the medium prior to I/R,significantly greater increases in permeability compared to those that had PSTI added
same,HRP permeation under normoxic conditions,[1]; normoxia,no effect on TEER or HRP permeation
same,Caspase 3,"lung tissue; IR + PSTI 20 μg/kg ip 1 h before clamping, mean ± SEM",0.092 ± 0.022 Change in absorbance
same,Baxα,lung tissue; [4],3.74 ± 0.21 pg/μg total protein
same,Bcl2,lung tissue; [4],45.66 ± 3.79 pg/μg total protein
same,Caspase 9,lung tissue; [4],0.063 ± 0.004 Change in absorbance
same,Claudin 1,lung tissue; [4],9.63 ± 0.40 pg/μg total protein
same,ZO1,lung tissue; [4],8.15 ± 0.80 pg/μg total protein
same,histological damage of lung,"lung tissue; PSTI 20 μg/kg ip 1 h before clamping, vs I/R without PSTI",markedly truncated these effects; also recorded: protective effects; also recorded: markedly truncated the adverse effects; also recorded: significantly reduced histological scoring of lung damage
same,MDA levels,lung tissue; [5],this increase was truncated; also recorded: significantly reduced MDA levels
same,MPO levels (neutrophil infiltration),lung tissue; [5],reduced neutrophil infiltration of the lungs; also recorded: significantly reducing these changes; also recorded: significantly reduced MPO levels
same,reduction of the rise in LDH,"AGS cells [2]; AGS, 4 h hypoxia + 24 h reperfusion, PSTI 10 μg/ml 1 h before hypoxia",37%±2%
same,effect on cell damage (LDH activity) after H/R vs serum free medium,AGS cells [2]; PSTI added before H/R,significantly decreased cell damage
same,LDH of cells not exposed to H/R,AGS cells [2]; [6],no change in viability or LDH; also recorded: no change in % LDH levels
same,ICAM1 levels,"50% SI (clamped region); 50% SI clamped (gut), PSTI 20 μg/kg ip, vs I/R without PSTI",did not affect increased ICAM1; also recorded: no effect on these results; also recorded: did not affect ICAM1 levels
same,histological damage of small intestine,"50% SI (clamped region); 50% SI clamped, PSTI 20 μg/kg ip 1 h before clamping, vs I/R without PSTI",much less extensive damage; also recorded: protective effects; also recorded: significantly reduced histological scoring
same,Baxα levels,50% SI (clamped region); [7],truncated the increase; also recorded: significantly decreased the damaging pro-apoptotic Baxα activity
same,Bcl2 levels,50% SI (clamped region); [7],maintained levels; also recorded: significantly increased the protective anti-apoptotic Bcl2 activity
same,Caspase 3 levels,50% SI (clamped region); [7],virtually eliminated; also recorded: significantly decreased Caspase 3 activity
same,Caspase 9 levels,50% SI (clamped region); [7],virtually eliminated; also recorded: significantly decreased Caspase 9 activity
same,Claudin1 levels,50% SI (clamped region); [7],virtually completely prevented; also recorded: significantly increased the protective Claudin1
same,HIF1α levels,50% SI (clamped region); [7],further increasing HIF1α and VEGF; also recorded: significantly increased the protective HIF1α
same,MDA levels,50% SI (clamped region); [7],this increase was truncated; also recorded: significantly reduced MDA levels
same,MPO levels,50% SI (clamped region); [7],significantly reducing these changes; also recorded: significantly reduced MPO levels
same,VEGF levels,50% SI (clamped region); [7],further increasing HIF1α and VEGF; also recorded: significantly increased the protective VEGF
same,ZO1 levels,50% SI (clamped region); [7],virtually completely prevented; also recorded: significantly increased the protective ZO1
same,hSP70 levels,50% SI (clamped region); [7],Additional increases in hSP70 expression; also recorded: significantly increased the protective hSP70
same,reduction of all injury markers,"50% SI (clamped region); gut, lung, kidney (necrosis, MDA, MPO), PSTI 20 μg/kg, p<0.01",50-80%
same,"histological and biochemical markers of injury in gut, lung and kidney",50% SI (clamped region); pre-treatment with PSTI,significantly reduced histological and biochemical markers of injury
same,NSAID-induced apoptosis,NSAID-induced apoptosis,reduces NSAID-induced apoptosis
same,cell viability in the MTT assay,"AGS cells [3]; AGS, PSTI 10 μg/ml 1 h before hypoxia (Pre), % of normoxic control, H/R without PSTI 52±2%",78±2%
same,cell viability in the MTT assay,"AGS cells [3]; AGS, PSTI 10 μg/ml during hypoxia period",66±3%
same,cell viability in the MTT assay,"AGS cells [3]; AGS, PSTI 10 μg/ml during the post-hypoxia period",49±1%
same,improvement of survival after H/R,"AGS cells [3]; AGS, RIE1 and Caco-2 cells, hypoxia/reperfusion 4 h+24 h, PSTI 10 μg/ml prior or during hypoxic period, p<0.01",50%
same,optimum concentration for reducing cell death (MTT and LDH assays),"AGS cells [3]; PSTI 5, 10 or 15 μg/ml given 1 h prior to H/R",10 µg/mL
same,effect on cell viability / cell death after H/R vs serum free medium,AGS cells [3]; PSTI added before (or during) H/R,reduced hypoxia-reoxygenation-induced cell death; also recorded: significantly increased % cell viability
same,cell viability of cells not exposed to H/R,AGS cells [3]; [6],no change in viability or LDH; also recorded: no change in viability
same,migration and invasion,bladder cancer,causes autocrine-mediated migration and invasion in bladder cancer
same,phosphorylation of signalling proteins,bladder cancer,"phosphorylates the EGF receptor, Akt2 and Akt3, and ERK1 and ERK2"

# Reference: patent US20200323954A1, “METHODS AND COMPOSITIONS FOR REDUCING GUT ISCHEMIA/REPERFUSION-INDUCED INJURY” (PanTheryx, Inc., priority 2019, published 2020)
